Laboratory results as given in paper PMC9775191, “A Subset Screen of the Compounds Australia Scaffold Library Identifies 7-Acylaminodibenzoxazepinones as Potent and Selective Hits for Anti-Giardia Drug Discovery” (Biomedicines, 2022).
Read-outs that look alike come from different tables or passages of the source.

Tests used:
[1] = system: G. duodenalis BRIS/91/HEPU/1279; test: Giardia dose response assay, assemblage B; format: cell-based, Giardia duodenalis
Procedure: In these assays, compounds were serially diluted (8–12-point doubling dilutions in technical duplicate) in DMSO control media, with all test wells inoculated with parasites (1.5 × 10^4 parasites for BRIS/91/HEPU/1279 and BRIS/91/HEPU/1279m1, or 3 × 10^3 parasites for BRIS/87/HEPU/713). […] All plates were sealed in culture chambers and gassed with 3% O2, 5% CO2 in N2 and incubated at 37 °C for 48 h, with parasites imaged and enumerated at 24 and 48 h. Growth inhibition was calculated as a percentage relative to vehicle controls minus any background as described above and IC50 values were determined using log-linear interpolation as previously described. […] Statistical comparison of IC50 values when required were performed using Student’s t-test.

[2] = system: Acinetobacter baumannii (ATCC 19606); test: Anti-bacterial activity assay; format: cell-based; settings: ATCC19606, 50 µM
Procedure: (§1) The activity of compounds against methicillin resistant Staphylococcus aureus (ATCC 43300), Escherichia coli (ATCC 25922), Acinetobacter baumannii (ATCC 19606) and Klebsiella pneumoniae (ATCC 700603) was assessed at 50 µM in duplicate as previously described. In brief, mid-log phase bacteria cultures were added to 384-well microtiter plate wells containing compound to final cell density of 5 × 10^5 CFU/mL in 50 µL. Plates were then covered and incubated at 37 °C for 18 h without shaking. Inhibition of bacterial growth was determined by measuring absorbance at 600 nm (Tecan M1000 Pro monochromator plate reader) and calculating percentage growth inhibition relative to the negative media and bacteria without inhibitors. Vancomycin hydrochloride (Sigma-Aldrich an affiliate of Merck KGaA, Darmstadt, Germany, #861987) and colistin sulfate (Sigma-Aldrich an affiliate of Merck KGaA, Darmstadt, Germany, C4461) were on each plate as positive controls for Gram-positive (S. aureus) and Gram-negative (E. coli, A. baumannii and K. pneumoniae) bacteria, respectively.

[3] = system: Klebsiella pneumoniae (ATCC 700603); test: Anti-bacterial activity assay; format: cell-based; settings: ATCC700603, 50 µM, read-out: Bacterial Inhibition K. pneumoniae
Procedure: as §1

[4] = system: methicillin resistant Staphylococcus aureus (ATCC 43300); test: Anti-bacterial activity assay; format: cell-based; settings: Staphylococcus aureus, ATCC43300, 50 µM; read-out: Bacterial Inhibition S. aureus
Procedure: as §1

[5] = system: Escherichia coli (ATCC 25922); test: Anti-bacterial activity assay; format: cell-based; settings: Escherichia coli, ATCC25922, 50 µM; read-out: Bacterial Inhibition E. coli
Procedure: as §1

[6] = system: G. duodenalis BRIS/91/HEPU/1279; test: Primary Giardia screen at 10 µM (live-cell imaging, automated counting); format: cell-based, Giardia duodenalis; settings: for inhibition at 10 µM: Giardia duodenalis
Outline: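 Compound added to 10 μM final in medium with 0.2% DMSO, one well each; plates then held in sealed chambers at 3% O2, 5% CO2 in N2; growth imaged and counted automatically at 24 and 48 h; values normalised to vehicle wells minus media blank.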

[7] = system: Neonatal foreskin fibroblast (NFF) cells; test: Mammalian cell cytotoxicity assay (sulforhodamine B); format: cell-based, human; settings: for inhibition at 20 µM / IC50: Homo sapiens, NFF; for inhibition at 20 µM: ±SD; for Selectivity: NFF IC50 divided by G. duodenalis BRIS/91/HEPU/1279 IC50; for SI (48h Gd): NFF vs 48 h Giardia IC50
Procedure: The selectivity of compounds of interest was assessed against NFF cells. Assays were performed using sulforhodamine B and included media only, negative (no compound, no DMSO), and vehicle (DMSO) controls as previously described. A chloroquine control plate was included in each assay. […] Repurchased SN00797640 was tested in dose–response from 100 µM against NFF. Selectivity indices (SI) were calculated by dividing mammalian cell IC50 values by G. duodenalis BRIS/91/HEPU/1279 IC50 values.

[8] = Giardia duodenalis, 24 h, read-out: G. duodenalis IC50 24h, Table S2, 24 h, ±SD, max 10 µM
[9] = Giardia duodenalis, 48 h, Table S2, 48 h, ±SD, max 10 µM, read-out: G. duodenalis IC50 48h
[10] = 24 h, first singlicate assay, read-out: % Inhibition n=1 24h
[11] = 24 h, re-assessment, read-out: % Inhibition n=2 24h
[12] = 24 h, read-out: Average % Inhibition 24h
[13] = 48 h, first singlicate assay, read-out: % Inhibition n=1 48h
[14] = 48 h, re-assessment, read-out: % Inhibition n=2 48h
[15] = 48 h, read-out: Average % Inhibition 48h
[16] = Giardia duodenalis, 48 h, BRIS/91/HEPU/1279, 48 h, mean ± SD, read-out: IC50 Giardia (48 h)

| IC50 [1, 16] [µM] | Compound | inhibition at 50 µM [2] [%] | inhibition at 50 µM [3] [%] | inhibition at 50 µM [4] [%] | inhibition at 50 µM [5] [%] | inhibition at 10 µM [6, 10] [%] | inhibition at 10 µM [6, 11] [%] | inhibition at 10 µM [6, 12] [%] | inhibition at 10 µM [6, 13] [%] | inhibition at 10 µM [6, 14] [%] | inhibition at 10 µM [6, 15] [%] | other results |
| --- | --- | --- | --- | --- | --- | --- | --- | --- | --- | --- | --- | --- |
|  | O=C(Nc1nc(-c2ccco2)c(-c2ccco2)s1)c1ccccc1 [SN00769776, O=C(Nc1sc(c2ccco2)c(n1)c1ccco1)c1ccccc1] | 23.4 | 32.1 | 6.45 | 8.92 | 35.4 | 19 | 27.2 | 77.6 | 64.8 | 71.2 | IC50 [1, 8]: > 10 µM; IC50 [1, 9]: > 10 µM; inhibition at 20 µM [7]: 24.8 ± 11.7% |
| 1.4 | CN1C(=O)c2ccccc2Oc2cc(NC(=O)c3cc4ccccc4[nH]3)ccc21 [SN00797648] |  |  |  |  |  |  |  |  |  |  | IC50 ([1]; BRIS/91/HEPU/1279, 48 h, mean ± SD, read-out: IC50 Giardia (48 h)): 1.7 µM; IC50 ([7]; mean ± SD, read-out: IC50 NFF): > 20 µM; Selectivity [7]: >11 |
|  | O=C(Cc1csc2nc(-c3ccccc3)cn12)Nc1ccc(Cl)cc1 [SN00796218, Clc1ccc(cc1)NC(=O)Cc1csc2nc(cn12)c1ccccc1] | 4.35 | 3.63 | -2.23 | 3.03 | 47.2 | 48 | 47.6 | 59.9 | 75.5 | 67.7 | IC50 [1, 8]: > 10 µM; IC50 [1, 9]: > 10 µM; inhibition at 20 µM [7]: 29.7 ± 10.3% |
|  | Cc1cccc(CNS(=O)(=O)c2cc(-c3csc(C)n3)sc2C)c1 [SN00798431, Cc1cccc(CNS(=O)(=O)c2cc(sc2C)c2csc(C)n2)c1] | 42.5 | 13.7 | 13.3 | -0.77 | 30.2 | 12.3 | 21.2 | 59.2 | 68.1 | 63.6 | IC50 [1, 8]: > 10 µM; IC50 [1, 9]: 5.93 ± 5.7 µM; inhibition at 20 µM [7]: 19.3 ± 27%; SI (48h Gd) ([7]; Table S2): > 3 |
| > 10 | Cc1cc(-c2cc(C(=O)Nc3c(C)n(C)n(-c4ccccc4)c3=O)c3cnn(C(C)C)c3n2)c(C)o1 [SN00776477] |  |  |  |  |  |  |  | 0 |  |  |  |
|  | CN(C)CCn1cc(C(=O)c2cc(Cl)ccc2O)cc1-c1nc2ccccc2c(=O)[nH]1 [SN00778038, CN(C)CCn1cc(cc1c1nc2ccccc2c(=O)[nH]1)C(=O)c1cc(Cl)ccc1O] | -8.73 | -1.96 | -9.58 | -2.44 | 45.3 | 44.7 | 45 | 85.2 | 86.5 | 85.8 | IC50 [1, 8]: > 10 µM; IC50 [1, 9]: 6.39 ± 2.8 µM; inhibition at 20 µM [7]: 8.4 ± 4.7%; SI (48h Gd) ([7]; Table S2): > 5 |
|  | Cc1ccc(NC(=O)c2cc3c(Cl)ccc4c3n2CCO4)cc1 [SN00788144, Cc1ccc(cc1)NC(=O)c1cc2c(Cl)ccc3OCCn1c23] | 20.8 | 13.5 | -2.91 | 2.85 | 41 | 20.1 | 30.5 | 65.8 | 32.9 | 49.3 | IC50 [1, 8]: > 10 µM; IC50 [1, 9]: > 10 µM; inhibition at 20 µM [7]: 31.4 ± 11.3% |
|  | COc1ccccc1N1CCN(C(=O)c2cc3c(C)nn(-c4ccc(C)cc4)c3s2)CC1 [SN00793100, COc1ccccc1N1CCN(CC1)C(=O)c1cc2c(C)nn(c3ccc(C)cc3)c2s1] | 9.06 | 7.52 | 10.1 | 1.35 | 51.9 | 44 | 48 | 62.1 | 69.2 | 65.6 | IC50 [1, 8]: > 10 µM; IC50 [1, 9]: > 10 µM; inhibition at 20 µM [7]: 46.7 ± 6.8% |
|  | Cc1ccc(C)c(-c2cc3c4nn(CC(=O)N(C)c5ccc(F)cc5)c(=O)n4ccn3n2)c1 [SN00790641, Fc1ccc(cc1)N(C)C(=O)Cn1nc2c3cc(nn3ccn2c1=O)c1cc(C)ccc1C] | 4.72 | 6.73 | -6.6 | 0.25 | 88.6 | 70.6 | 79.6 | 95 | 97.7 | 96.3 | IC50 [1, 8]: 2.84 µM; IC50 [1, 9]: 3.41 ± 2.02 µM; Average % Inhibition 48h ([6]; 48 h): > 90%; inhibition at 20 µM [7]: 40.4 ± 1.1%; SI (48h Gd) ([7]; Table S2): > 5 |
| 0.47 | CCc1ccc(C(=O)Nc2ccc3c(c2)Oc2ccccc2C(=O)N3C)cc1 [SN00797643] |  |  |  |  |  |  |  |  |  |  | IC50 ([7]; mean ± SD, read-out: IC50 NFF): > 10 µM; Selectivity [7]: >20 |
| > 10 | COc1ccc(OCC(=O)Nc2ccc3c(c2)Oc2ccccc2C(=O)N3C(C)C)cc1 [SN00797662] |  |  |  |  |  |  |  |  |  |  |  |
| > 10 | CN1C(=O)c2ccccc2Oc2cc(NC(=O)COc3ccc(Cl)cc3)ccc21 [SN00797641] |  |  |  |  |  |  |  |  |  |  |  |
| > 10 | CN1C(=O)c2ccccc2Oc2cc(NC(=O)c3ccoc3)ccc21 [SN00797644] |  |  |  |  |  |  |  |  |  |  |  |
| > 10 | Cc1cccc(C(=O)Nc2ccc3c(c2)Oc2ccccc2C(=O)N3C)c1 [SN00797639] |  |  |  |  |  |  |  |  |  |  |  |
| > 10 | Cc1ccc(C(=O)Nc2ccc3c(c2)Oc2ccccc2C(=O)N3C(C)C)cc1F [SN00797663] |  |  |  |  |  |  |  |  |  |  |  |
| > 10 | Cc1ccc(N2CC(C(=O)Nc3ccc4c(c3)Oc3ccccc3C(=O)N4C(C)C)CC2=O)cc1C (stereo not shown) [SN00797653] |  |  |  |  |  |  |  |  |  |  |  |
| > 10 | COc1ccc(C(=O)Nc2ccc3c(c2)Oc2ccccc2C(=O)N3C)c(OC)c1 [SN00797635] |  |  |  |  |  |  |  |  |  |  |  |
| > 10 | CN1C(=O)c2ccccc2Oc2cc(NC(=O)c3ccccc3)ccc21 [SN00797647] |  |  |  |  |  |  |  |  |  |  |  |
| > 10 | CC(C)N1C(=O)c2ccccc2Oc2cc(NC(=O)c3cccs3)ccc21 [SN00797657] |  |  |  |  |  |  |  |  |  |  |  |
| > 10 | CN1C(=O)c2ccccc2Oc2cc(NC(=O)c3cccc(Br)c3)ccc21 [SN00797645] |  |  |  |  |  |  |  |  |  |  |  |
|  | Cc1cc2[nH]c(C(=O)Nc3ccccc3C)c(CN3CCOCC3)c2s1 [SN00798525, Cc1cc2[nH]c(C(=O)Nc3ccccc3C)c(CN3CCOCC3)c2s1] | 4.92 | 6.11 | 22.2 | -0.27 | 91.4 | 97.9 | 94.7 | 96.5 | 98.8 | 97.6 | Average % Inhibition 48h ([6]; 48 h): > 90%; IC50 ([7]; Table S2, max 10 µM, read-out: NFF IC50): > 10 µM |
| > 10 | Cc1ccc(N2CC(C(=O)Nc3ccc4c(c3)Oc3ccccc3C(=O)N4C(C)C)CC2=O)cc1 (stereo not shown) [SN00797654] |  |  |  |  |  |  |  |  |  |  |  |
| > 10 | CN1C(=O)c2ccccc2Oc2cc(NC(=O)c3cc4cc(Cl)ccc4[nH]3)ccc21 [SN00797649] |  |  |  |  |  |  |  |  |  |  |  |
| > 10 | CCOc1ccc(C(=O)Nc2ccc3c(c2)N(C(C)C)C(=O)c2ccccc2O3)cc1 [SN00797660] |  |  |  |  |  |  |  | 33.8 |  |  |  |
